# Source: patent publication US10889553B2, “Asymmetric triazole benzamide derivatives and the compositions and methods of treatment regarding the same” (NysnoBio Ireland DAC, priority 2017, dated 2021)
# Test system: TOV-21G (ovarian)
# Experiment: Cancer cell proliferation assay (acid phosphatase)
# Type: cell-based
# Settings: Homo sapiens, TOV21G, 72 h, Table 6A; 72 hrs; read-out: TOV-21G IC50
# Outline: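 Growth inhibition is expressed as a percentage of DMSO-treated control cells, using absorbance at 405 nm corrected at 620 nm after acid phosphatase conversion of p-nitrophenol phosphate. Compound exposure lasts 72 hrs at 37° C. following overnight attachment.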
row,Structure (SMILES),IC50 [µM]
1,C#Cc1ccc(C(=O)Nc2nc(NC(=O)c3cccc(N=[N+]=[N-])c3)n(-c3ccccc3)n2)cc1 [Compound 2],2.2
2,Cc1ccccc1C(=O)Nc1nc(NC(=O)c2ccno2)n(-c2ccccc2)n1 [Compound 7],> 1
3,Cc1ccccc1C(=O)Nc1nc(NC(=O)c2ccccn2)nn1-c1ccccc1 [Compound 16],2.3
4,Cc1ccccc1C(=O)Nc1nc(NC(=O)c2cnccn2)n(-c2ccccc2)n1 [Compound 17],> 1
5,Cc1ccccc1C(=O)Nc1nc(NC(=O)C2CCCN2)nn1-c1ccccc1 (stereo not drawn) [Compound 20],> 1
6,Cc1ccc(C(=O)Nc2nc(NC(=O)c3ccc(C)cc3)n(-c3ccccc3)n2)cc1 [Compound 21],2.5
7,COc1ccccc1C(=O)Nc1nc(NC(=O)c2ccccc2OC)n(-c2ccccc2)n1 [Compound 23],2.4
8,Cc1ccccc1C(=O)Nc1nc(NC(=O)c2ccccc2C)n(-c2ccccc2Cl)n1 [Compound 26],2.1
9,Cc1ccc(-n2nc(NC(=O)c3ccccc3C)nc2NC(=O)c2ccccc2C)cc1 [Compound 31],2.3
10,Cc1ccccc1C(=O)Nc1nc(NC(=O)c2ccccc2C)n(-c2ccccc2F)n1 [Compound 32],> 2.5
11,O=C(Nc1nc(NC(=O)c2ccncc2)n(-c2ccccc2)n1)c1ccncc1 [Compound 33],> 2.5
12,O=C(Nc1nc(NC(=O)c2cccnc2)n(-c2ccccc2)n1)c1cccnc1 [Compound 40],> 2.5
13,O=C(Nc1nc(NC(=O)c2ccccn2)n(-c2ccccc2)n1)c1ccccn1 [Compound 41],> 2.5
14,Cc1ccccc1C(=O)Nc1nc(NC(=O)c2ccccc2C)n(-c2ccc(N3CCCCC3)cc2)n1 [Compound 44],1.9
15,Cc1ccccc1C(=O)Nc1nc(NC(=O)c2ccccc2C)n(-c2ccc(F)cc2F)n1 [Compound 46],2.4
16,Cc1ccccc1C(=O)Nc1nc(NCc2ccccc2)nn1-c1ccc(C(F)(F)F)cc1 [Compound 102],> 2.5

# The next lines start with the values.
row,IC50 [µM],Structure (SMILES)
1,1.2,Cc1ccccc1C(=O)Nc1nc(NC(=O)c2cccnc2)nn1-c1ccccc1 [Compound 6]
2,0.97,Cc1ccccc1C(=O)Nc1nc(NC(=O)c2ccccc2C)n(-c2ccc(F)c(F)c2)n1 [Compound 24]
3,< 0.1,Cc1ccccc1C(=O)Nc1nc(NC(=O)c2ccccc2C)n(-c2ccc(C(F)(F)F)cc2)n1 [Compound 25]
4,1.5,Cc1ccccc1C(=O)Nc1nc(NC(=O)c2ccncc2)nn1-c1ccccc1 [Compound 34]
5,1.4,Cc1ccccc1C(=O)Nc1nc(NC(=O)c2ccccc2C)n(-c2ccc(C#N)cc2)n1 [Compound 35]
6,0.3,Cc1ccccc1C(=O)Nc1nc(NC(=O)c2ccccc2C)n(-c2cccc(Cl)c2)n1 [Compound 36]
7,1.9,COc1ccc(C(=O)Nc2nc(NC(=O)c3ccc(OC)cc3)n(-c3ccccc3)n2)cc1 [Compound 37]
8,1.7,Cc1cccc(-n2nc(NC(=O)c3ccccc3C)nc2NC(=O)c2ccccc2C)c1 [Compound 38]
9,1.5,Cc1ccccc1C(=O)Nc1nc(NC(=O)c2ccccc2C)n(-c2cccc(F)c2)n1 [Compound 39]
10,0.59,Cc1ccnc(-c2nc(NC(=O)c3ccccc3C)n(-c3ccccc3)n2)c1 [Compound 124]

# Same assay, conditions: Homo sapiens, TOV21G; Table 6A; 72 hrs; read-out: TOV-21G IC50
row,Structure (SMILES),IC50 [µM]
1,"Cc1ccccc1C(=O)Nc1nc(NC(=O)c2ccccc2C)n(-c2ccc(OC(F)(F)F)cc2)n1 [Compound 42, N,N′-(1-(4-(trifluoromethoxy)phenyl)-1H-1,2,4-triazole-3,5-diyl)bis(2-methylbenzamide)]",0.25

# Same assay, conditions: Homo sapiens, TOV21G; Table 6C, data of FIG. 2; read-out: IC50 (μM) TOV-21G (ovarian)
row,Structure (SMILES),IC50 [µM]
1,"Cc1ccccc1C(=O)Nc1nc(NC(=O)c2ccccc2C)n(-c2ccc(OC(F)(F)F)cc2)n1 [Compound 42, N,N′-(1-(4-(trifluoromethoxy)phenyl)-1H-1,2,4-triazole-3,5-diyl)bis(2-methylbenzamide)]",0.15

# Same assay, conditions: Homo sapiens, TOV21G; Table 6D, another set of cell proliferation assay
row,Structure (SMILES),EC50 [nM]
1,"Cc1ccccc1C(=O)Nc1nc(NC(=O)c2ccccc2C)n(-c2ccc(OC(F)(F)F)cc2)n1 [Compound 42, N,N′-(1-(4-(trifluoromethoxy)phenyl)-1H-1,2,4-triazole-3,5-diyl)bis(2-methylbenzamide)]",74

# Same assay, conditions: Homo sapiens, TOV21G; Table 6E; read-out: Proliferation IC50 (nM) Ovarian TOV21G
row,Structure (SMILES),IC50 [µM]
1,"Cc1ccccc1C(=O)Nc1nc(NC(=O)c2ccccc2C)n(-c2ccc(OC(F)(F)F)cc2)n1 [Compound 42, N,N′-(1-(4-(trifluoromethoxy)phenyl)-1H-1,2,4-triazole-3,5-diyl)bis(2-methylbenzamide)]",0.109
